Measured values from patent US9198886B2, “Use of 2,5-dihydroxybenzene for the treatment of ocular diseases” (priority 2006, dated 2015).

Legend:
[1] = system: Leishmania major; experiment: Leishmania major infection of the mouse paw pad; format: in vivo, BALB/c female mice
Description: This model is based in the massive inoculation of Leishmania promatigotes in the mouse paw pad. Under these conditions, the parasite induces a progressive inflammation correlated with the multiplication of parasites at the site of inoculation. BALB/c strain female mice that developed severe and uncontrolled injuries were used (Foote S J, Handman E. Brief Funct Genomic Proteomic, 2005). This model has been used in pharmacology to monitor the therapeutic capacity of new leishmanicide compounds and the preventive capacity of potential vaccines against leishmaniasis ((Nelson K G et al. Antimicrob Agents Chemother. 2006).
The animals were inoculated with 5×10^6 of L. major promastigotes (strain Hervás) in 50 μL of PBS into the plantar pad of the right back paw. As negative control of the infection, a group of mice inoculated with 50 μL of PBS was used. The sizes of the lesions were measured every 7 days until the animals were sacrificed (week 9) using a Vernier caliper. The thickness of the right back paw (infected) and the left back paw (uninfected) of all the animals was measured at the base of the fifth toe. The progression of the inflammation is represented as the difference in thickness between the infected and the non-infected paws. […]

[2] = biological target: T1, fibroblast growth factor-1 (FGF-1) (Homo sapiens, UniProt P05230); experiment: FGF-1 induced mitogenesis in quiescent Balb/c 3T3 fibroblasts; format: cell-based; conditions: potassium salts, except 2-acetoxy-5-hydroxybenzene sulfonate as calcium salt
Protocol: The evaluated compounds were used in the form of potassium salt, except in the first case in which calcium salt was used. The experiments were carried out as described in Fernández-Tornero C et al. J Biol Chem, 2003.

[3] = biological target: T1, fibroblast growth factor-1 (FGF-1); experiment: Co-crystal structure with fibroblast growth factor-1; format: binding
Description: (§1) FIG. 24. 2-acetoxy-5-hydroxybenzenesulfonic acid co-crystallized with fibroblast growth factor-1. […] The compound occupies a place that is very close to that described occupied by 2,5-dihydroxybenzenesulfonic acid, the aromatic ring of which forms a cation-π bond with the N^ε group of lysine 132, which is marked in panel A as reference. […] In panels A and B, the protein surface is colored according to its electrostatic potential (light grey: negative charge; dark grey: positive charge; white: lack of charge).
as §1, with “25. 5-acetoxy-2-hydroxybenzenesulfonic” for “24. 2-acetoxy-5-hydroxybenzenesulfonic”
as §1, with “26. 2,5-diacetoxybenzenesulfonic” for “24. 2-acetoxy-5-hydroxybenzenesulfonic”
Based on the crystal diffraction of the FGF-1:2-acetoxy-5-hydroxybenzene sulfonic acid, FGF-1:5-acetoxy-2-hydroxybenzene sulfonic acid and FGF-1:2,5-diacetoxybenzene sulfonic acid complexes, the structures of the complexes were calculated and represented. FIGS. 24, 25 and 26, which show the surface of the dyed protein according to its electrostatic potential (light grey: negative charge; dark grey: positive charge; white: lack of charge), show the manner in which 2-acetoxy-5-hydroxybenzene sulfonic acid, 5-acetoxy-2-hydroxybenzene sulfonic acid and 2,5-diacetoxybenzene sulfonic acid interact, respectively, with FGF-1.

[4] = system: endometriotic lesions; experiment: Rat model of endometriosis, histology of autologous implant; format: in vivo, Sprague-Dawley rats; conditions: 200 mg/kg/day i.p., two weeks
Description: In these rats, the epithelial layer (a) and the stroma (b) are clearly observed in the endometrium, while longitudinal (c) and circular (d) normal layers of smooth muscle cells are observed in the myometrium adjacent to the peritoneal tissue (e). […] The neovascularization observed in the uterine tissue implanted in control rats (shown with arrows in A) is not present in rats treated with 2,5-dihydroxybenzenesulfonic (DHBS) (C). • D) Magnification of the area marked with a box in C.
Sprague-Dawley rats were anesthetized as described (Fernández-Tornero C et al. J Biol Chem, 2003). Endometriotic lesions were induced using a known rat model of endometriosis (Vernon M W and Wilson E A. Fertil Steril, 1985). In summary, 2 mm fragments of the cervix were autologously implanted between branches in the mesenteric vascular tree. The rats were treated or not treated (control) daily during two weeks after the surgery with 2,5-dihydroxybenzene sulfonic acid (DHBS) (200 mg/kg; i.p.). Then, the rats were sacrificed and the endometrial ectopic tissue was removed to make its histological examination. […] This example illustrates the therapeutic activity of 2,5-dihydroxybenzene sulfonate (DHBS) in the treatment of endometriosis.

[5] = system: skeletal muscle lesions; experiment: Oral treatment of patients with skeletal muscle and tendon lesions (MRI, function); format: in vivo, human
Protocol: The capacity of a 2,5-dihydroxybenzene derivative, the 2,5-dihydroxybenzene sulfonic acid (DHBS) to effectively treat skeletal muscle lesions is shown herein. The efficacy is evident, not only in the images of conventional diagnosis that show the recovery of the muscular damage, but also there is a clear functional recovery of the affected limb.
The first patient's left quadriceps was broken by practicing sports. […] At that moment, the patient starts a daily oral treatment with 500 mg of 2,5-dihydroxybenzene sulfonic acid (DHBS) for two weeks. […] An observation that may be applied to the other cases that support this example.
Other patient has an hematoma and muscular breaking of the brachial biceps, as shown in the magnetic resonance image (MRI) of FIG. 12A. The hematoma can be appreciated externally (FIG. 13A) and the lesion, produced by professional practice (dancing) the day before the consultation, limits the elbow flexion (FIG. 13B) and extension (FIG. 13C).

[6] = patient with brachial biceps breaking, 1500 mg/day p.o., 20 days
[7] = patient with broken left quadriceps, 500 mg/day p.o., two weeks

T1 sequence (P05230 whole entry, species assumed): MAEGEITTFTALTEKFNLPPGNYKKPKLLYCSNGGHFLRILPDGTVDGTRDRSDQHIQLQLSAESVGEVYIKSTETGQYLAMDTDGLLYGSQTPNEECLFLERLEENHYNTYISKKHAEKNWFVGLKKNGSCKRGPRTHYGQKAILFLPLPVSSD

CC(=O)Oc1ccc(OC(C)=O)c(S(=O)(=O)[O-])c1.[K+] [DABS, potassium 2,5-diacetoxybenzene sulfonate]
size of the lesion (paw thickness difference) ([1]; 200 mg/kg/day i.p. from day 0 to week 9, effect from the third week post-infection): statistically significant reduction in the size of the lesion | FGF-1 induced mitogenesis [2]: Inhibition of FGF-1 induced mitogenesis was observed | binding site on FGF-1 ([3]; crystal diffraction of the complex): very close to the one that has been described occupied by 2,5-dihydroxybenzene sulfonic acid | acetoxyl groups of the compound when bound to FGF-1 ([3]; crystal diffraction, electron density contoured at 1σ): conserve the acetoxyl groups

O=S(=O)(O)c1cc(O)ccc1O [DHBS, 2,5-dihydroxybenzene sulfonic acid]
increase of paw thickness (infected vs non-infected paw) ([1]; potassium salt 200 mg/kg i.p. daily for 14 days from third week after infection, effect from the eighth week): significant reduction in the increase of paw thickness | FGF-1 induced mitogenesis [2]: Inhibition of the mitogenesis | histology of implanted tissue (hematoxylin-eosin) [4]: athrophy of the cervix tissue implanted | neovascularization of implanted uterine tissue [4]: not present | MRI tendon lesion ([5]; patient with Achilles tendon breaking, 1500 mg/day p.o., two months): marked reduction of said lesion | MRI size of lesion and hematoma [5, 6]: markedly reduces the size of the lesion and of the hematoma | elbow function [5, 6]: recovers the functionality of the elbow flexion and extension | MRI of quadriceps lesion and hematoma [5, 7]: the hematoma can no longer be observed | functional recovery of the leg [5, 7]: able to extend the left leg almost completely | time to functional recovery and resolution vs conventional treatments (antiinflammatories) [5, 7]: shorter period than the one required in the case of conventional treatments | MRI muscular lesion ([5]; patient with semitendinous muscle lesion, 1500 mg/day p.o., 11 days): reduced the muscular lesion
